These results are taken from patent US20250289816A1, “SALTS AND PHARMACUTICAL COMPOSITIONS THEREOF FOR THE TREATMENT OF INFLAMMATORY DISORDERS” (Alfasigma S.p.A., priority 2014, published 2025).

Values after ≈ are worked out from the molar mass of the structure shown.

The nature of series [1]: Thermodynamic aqueous solubility by HPLC. The class given is physicochemical. The settings on record: salt obtained by Protocol 4.
Series [2] is described as follows: Complementary salt analysis (XRPD, stability evaluation). The class given is physicochemical. Particulars: salt obtained by Protocol 4.
The nature of series [3]: Dog bioavailability study. The class given is in vivo, beagle dogs. Particulars: for Cmax / Tmax / Exposure AUC: target dose 10 mg/kg. The method, then:
The dogs are not fasted before dosing, and have free access to water. Every day of the treatment, a half food ration is provided after the T0 blood sampling, 8 to 17 min before treatment, and the second half ration is given just after dosing or 1 h after treatment for period 2. A 3 days washout period is ensured between treatments.
The capsule composition is described in Table XX below.
The capsules are administered orally with water (5-10 mL), to provide good oesophageal transit. Each animal is checked at least once daily.
Blood is collected from the jugular vein into lithium heparinised tubes at TO (before food administration) and then at 1 h, 2 h, 4 h, 6 h, 8 h, 10 h, and 24 h post treatment.
Plasma is then obtained from blood by centrifugation (2500 g for 10 min at 4° C.), and stored at −20° C. until analysis.
After vortex mixing and centrifugation at 4° C., the supernatants are diluted with a 0.5 volume of HPLC grade water in a midi-eppendorf 96-well plate. The plate is sealed and shaken to ensure sample homogeneity prior to analysis.
Pharmacokinetic analysis is performed using WinNonlin™ software version 5.3, using concentrations from individual animals. Non-compartmental analysis is applied to determine the PK parameters (Cmax, Tmax, AUC0-last, t1/2, etc. . . . )
Concentrations below the limit of detection are set to zero for descriptive statistics and PK parameter calculations.

A short description of series [4]: Solubility study in different solvents (UV-spectrometry). The class given is physicochemical. The settings on record: at least 24 h. Here is the method:
The supersaturated solution is then filtered and the concentration of product in the filtrate is determined using UV-spectrometry.
In water, the influence of the pH is adjusted to pH 2, pH 7, and pH 9. HCl and NaOH are used to adjust the pH.

A short description of series [5]: Dissolution in solvents (salt Protocol 1). The class given is physicochemical. The settings on record: DCM, up to 20 relative volumes, agitated at 50° C.; not in the other nine solvents. From the text:
The solvent is selected from isopropanol, ethanol, methanol, isopropyl acetate, THF, TBME, acetone, methyl ethyl ketone, DCM, and MeCN.

A further series in a line: GVS analysis. The class given is physicochemical. An excerpt:
The evolution of the material is followed via XPRD at various time points.

Where [6] appears, read: single oral administration, 1 × 100 mg capsule.
[7] abbreviates: single oral administration, 4 × 25 mg capsules.
[8] abbreviates: oral capsules, on average at the 2 capsule strengths.

By aqueous solubility is commonly meant the dissolved amount per volume that the medium holds. For `Cl.O=C(Nc1nc2cccc(-c3ccc(CN4CCS(=O)(=O)CC4)cc3)n2n1)C1CC1` [HCl salt], the aqueous solubility in series [1] turned out to be 1900 µg/mL. In series [2], the “hygroscopicity of the salt” value was “non-hygroscopic”. For the same molecule, in series [2] (stability evaluation 1 week at 40° C./75% Relative humidity), the “stability of the salt” value is recorded as “stable”.

The Cmax is the maximum level reached in the sampled fluid or tissue. What is called Tmax is the time at which the peak concentration occurs. In general, Solubility refers to the concentration that dissolves in the medium under given conditions. `O=C(Nc1nc2cccc(-c3ccc(CN4CCS(=O)(=O)CC4)cc3)n2n1)C1CC1` [Compound 1, cyclopropanecarboxylic acid {5-[4-(1,1-dioxo-thiomorpholin-4-ylmethyl)-phenyl]-[1,2,4]triazolo[1,5-a]pyridin-2-yl}-amide]: in series [3] (setting [6]), the Cmax turned out to be 797 ng/mL and the time to peak (Tmax) is recorded as 8.0 h. For the same molecule, in series [3] (setting [7]), the Cmax came to 894 ng/mL, the “Exposure AUC” value came to 10400 ng·h/mL and the Tmax is 6.0 h. The Solubility in series [4] (0.005M HCl, 20° C.) stood at 252 µg/mL (≈ 592 µM). In series [4] (HP-β-CD 40% pH3, 20° C.), the Solubility was 550 µg/mL (≈ 1290 µM). Besides, the dissolution in solvent result in series [5] is given as “almost full dissolution”.

For the molecule `Cl.O.O.O.O=C(Nc1nc2cccc(-c3ccc(CN4CCS(=O)(=O)CC4)cc3)n2n1)C1CC1` [Compound 1·HCl·3H2O], the “in vivo exposure compared with Compound 1” value in series [3] (setting [8]) is “improved exposure”. The “rate of absorption compared with Compound 1” value in series [3] (setting [8]) is reported as “more rapidly absorbed”. For the same molecule, the Cmax in series [3] (setting [6]) is 2630 ng/mL; in series [3] (setting [7]), 3050 ng/mL. Moreover, the figures for the “Exposure AUC” value in series [3] (setting [6]) and in series [3] (setting [7]) were 21700 ng·h/mL and 33600 ng·h/mL, respectively. Moreover, the Tmax in series [3] (setting [6]) and in series [3] (setting [7]) was 2.0 h each time. Further, in series [3] (single oral administration, one range across both forms and both capsule strengths), the T1/2 result is “Range 4.43-8.96 h”. In addition, the Solubility in series [4] (0.005M HCl, 20° C.) amounted to 3100 µg/mL; in series [4] (0.01M HCl + 2.0% Tween 80, 20° C.), 2790 µg/mL; in series [4] (0.01M HCl, 20° C.) it was 2340 µg/mL; in series [4] (Acetone, 20° C.), 415 µg/mL; in series [4] (Acetonitrile, 20° C.), 7360 µg/mL; in series [4] (Acetonitrile/water (1/1), 20° C.), 25600 µg/mL. Besides, the Solubility is 7810 µg/mL in series [4] (Acetonitrile/water (4/1), 20° C.); 388 µg/mL in series [4] (Dichloromethane, 20° C.); 764 µg/mL in series [4] (Ethanol, 20° C.); 7880 µg/mL in series [4] (HP-β-CD 40% pH2, 20° C.); 9330 µg/mL in series [4] (HP-β-CD 40% pH3, 20° C.); 2790 µg/mL in series [4] (HP-β-CD 40% pH4, 20° C.). Moreover, the Solubility stood at 743 µg/mL in series [4] (Methanol, 20° C.); 36600 µg/mL in series [4] (PEG400, 20° C.); 663 µg/mL in series [4] (Propanol, 20° C.); 11700 µg/mL in series [4] (Propylene glycol, 20° C.); 208 µg/mL in series [4] (Tetrahydrofuran, 20° C.); 3170 µg/mL in series [4] (Water (purified), 20° C.). Moreover, the Solubility in series [4] (Water pH2, 20° C.) amounted to 8050 µg/mL; in series [4] (Water pH7, 20° C.) it was 2260 µg/mL; in series [4] (Water pH9, 20° C.), 2680 µg/mL; in series [4] (Water/ethanol 1/1, 20° C.), 8680 µg/mL; in series [4] (t-butyl methyl ether, 20° C.) it was 26.3 µg/mL. Moreover, the “change in form at elevated RH” value in “GVS analysis” (GVS, followed by XRPD) is “No change in form”. In addition, in the series “GVS analysis” (upon heating), the “temperature of dehydration to Compound 1·HCl anhydrous” value is “above 60 °C”.
